Results taken from patent publication US20080161273A1, “Method of Using Adapalene in Acne Maintenance Therapy” (GALDERMA RESEARCH & DEVELOPMENT, priority 2004, published 2008).
Where two headings read alike, the source gives them in different places.

What was measured:
[1] = 5-question subject satisfaction survey at last visit of the maintenance study; type: in vivo, human; conditions: P=0.94 vs vehicle
Description: The primary efficacy variable was the failure rate at week 16, defined as the percentage of subjects unable to maintain 50% of total lesion count improvement from the previous 12-week combination therapy study (e.g., a subject entering the maintenance phase after having lost 40 lesions in the combination study was considered as a failure if the lesion count at the end of the maintenance study was increased by more than 20 lesions). Data from this assessment is presented graphically herein as a maintenance rate, which is simply 100% minus the failure rate. Secondary efficacy variables included lesion counts (total, inflammatory and non inflammatory), failure rates for inflammatory and non-inflammatory lesions, as well as global severity and global improvement of the disease. At the last visit, subject satisfaction was assessed via a 5-question survey.

[2] = 16-week maintenance therapy study: safety, local facial tolerability, adverse events, discontinuation; type: in vivo, human
Description: The efficacy and safety of the adapalene gel 0.1% (Galderma Laboratories, LP, Ft. Worth, Tex.) as a maintenance therapy were compared to gel vehicle in a randomized, multicenter, vehicle-controlled, investigator-blind, parallel group study conducted at 34 centers in the United States between Nov. 13, 2003 and May 25, 2004. This study was designed to set a high threshold for achieving success. […] These subjects were re-randomized consecutively in a 1:1 ratio to receive either adapalene gel 0.1% or adapalene gel vehicle once-daily in the evening for an additional 16 weeks. Subjects were stratified by the treatment assignment received in the previous study using an interactive voice responsive system. The randomization schedule remained blinded from those involved in the clinical conduct of the study. The integrity of the blinding was ensured by packaging the topical medication in identical tubes and requiring a third party other than the investigator/evaluator to dispense the medication.
Safety and tolerability were assessed through evaluations of local facial tolerability and adverse events. At each visit, the investigator rated erythema, scaling, dryness, and stinging/burning on a scale ranging from 0 (none) to 3 (severe). Mean scores at each postbaseline visit and worst score (worst observation recorded for a subject during the post-baseline period) were recorded. Adverse events were also evaluated at each visit.
Three study populations were analyzed. The safety population was defined as all patients randomized and treated at least once. The intent-to-treat (ITT) population included all randomized subjects who were dispensed study medication. The per-protocol (PP) population included all randomized subjects without any major protocol deviations.

[3] = tested on: acne vulgaris; test: 16-week maintenance therapy study after adapalene-doxycycline combination therapy: efficacy (maintenance rate, lesion counts, global severity); type: in vivo, human
Description: The efficacy and safety of the adapalene gel 0.1% (Galderma Laboratories, LP, Ft. Worth, Tex.) as a maintenance therapy were compared to gel vehicle in a randomized, multicenter, vehicle-controlled, investigator-blind, parallel group study conducted at 34 centers in the United States between Nov. 13, 2003 and May 25, 2004. This study was designed to set a high threshold for achieving success. […] These subjects were re-randomized consecutively in a 1:1 ratio to receive either adapalene gel 0.1% or adapalene gel vehicle once-daily in the evening for an additional 16 weeks. Subjects were stratified by the treatment assignment received in the previous study using an interactive voice responsive system. The randomization schedule remained blinded from those involved in the clinical conduct of the study. The integrity of the blinding was ensured by packaging the topical medication in identical tubes and requiring a third party other than the investigator/evaluator to dispense the medication. Exclusion criteria prohibited enrollment of subjects with acne requiring isotretinoin therapy or other dermatologic conditions requiring interfering treatment. Women were excluded if they were pregnant, nursing, or planning a pregnancy as were men with facial hair that would interfere with the assessments. Subjects were provided Cetaphil® daily facial moisturizer SPF 15 (Galderma Laboratories, LP., Ft Worth, Tex.) to use as needed for the symptomatic relief of skin dryness or irritation. Evaluations for this study occurred at baseline and at weeks 4, 8, 12, and 16. The final visit from the previous 12-week combination study served as the baseline visit for this 16-week maintenance study. The primary efficacy variable was the failure rate at week 16, defined as the percentage of subjects unable to maintain 50% of total lesion count improvement from the previous 12-week combination therapy study (e.g., a subject entering the maintenance phase after having lost 40 lesions in the combination study was considered as a failure if the lesion count at the end of the maintenance study was increased by more than 20 lesions). Data from this assessment is presented graphically herein as a maintenance rate, which is simply 100% minus the failure rate. Secondary efficacy variables included lesion counts (total, inflammatory and non inflammatory), failure rates for inflammatory and non-inflammatory lesions, as well as global severity and global improvement of the disease. At the last visit, subject satisfaction was assessed via a 5-question survey. All data analyses were carried out according to a pre-established analysis plan. A sample size of 113 subjects per group was deemed necessary to detect a statistically significant difference in failure rate between treatment groups based on the use of a 2-tailed test with […] and a power of 90%; an assumption of a 15% efficacy difference between the 2 treatment groups; and a dropout rate of 10%. Three study populations were analyzed. The safety population was defined as all patients randomized and treated at least once. The intent-to-treat (ITT) population included all randomized subjects who were dispensed study medication. The per-protocol (PP) population included all randomized subjects without any major protocol deviations. […] Analyses for efficacy were performed on week 16 data for the ITT population and the PP population. Last observation carried forward (LOCF) methodology was used to account for missing data for the ITT population analysis (lesion counts). In addition, all subjects with missing data at week 16 were considered failures for the failure rate analysis (worst case). Age was tested at baseline with the analysis of variance (ANOVA) model with treatment, center, and their interaction as factors. All other variables were analyzed by using the Cochran-Mantel-Haenzsel (CMH) test controlling for “analysis center” and previous treatment for both the ITT and PP populations. […]

[4] = applied as monotherapy, versus tazarotene and tretinoin formulations, cited from earlier work

COc1ccc(-c2ccc3cc(C(=O)O)ccc3c2)cc1C12CC3CC(CC(C3)C1)C2 [adapalene, 6-[3-(1-adamantyl)-4-methoxyphenyl]-2-naphtoic acid]
subjects not bothered by side effects [1]: 90%
overall safety and tolerability ([2]; 16-week study): safe and well tolerated
subjects experiencing adverse events ([2]; 16-week study): 25%
subjects with treatment-related adverse events (percentage) ([2]; 16-week study): 2.4%
subjects with treatment-related adverse events (number) ([2]; 16-week study, 126 subjects in group): 3 subjects
mean worst score for each local cutaneous tolerability variable, large majority of subjects ([2]; scale none, mild, moderate, severe): none or mild
lesion counts during the course of the study versus baseline ([3]; 16 weeks, vehicle group gradually increased): remained stable or decreased
subjects "clear" or "almost clear" in global severity assessment ([3]; P=0.005 for distribution of severity scores vs vehicle): 27%
global assessment of improvement versus vehicle ([3]; P=0.01): significant advantages
total lesion counts relative to vehicle ([3]; end point week 16, ITT, LOCF, P=0.005): significantly lower
inflammatory lesion counts relative to vehicle ([3]; end point week 16, ITT, LOCF, P=0.01): significantly lower
noninflammatory lesion counts relative to vehicle ([3]; end point week 16, ITT, LOCF, P=0.02): significantly lower
maintenance rate, total lesion counts (subjects maintaining at least 50% of improvement from previous combination study) ([3]; week 16, ITT, worst case (missing data = failure), once-daily for 16 weeks, P<0.001 vs vehicle): 75%
tolerability / cutaneous irritation profile versus other topical retinoids [4]: more favorable cutaneous irritation profile
tolerability / cutaneous irritation profile versus other topical retinoids ([4]; listed as Adapalene): more favorable tolerability profile
